One experiment has as its target T1, human LTA4 hydrolase (Homo sapiens, UniProt P09960).
T1 sequence (P09960 1-611): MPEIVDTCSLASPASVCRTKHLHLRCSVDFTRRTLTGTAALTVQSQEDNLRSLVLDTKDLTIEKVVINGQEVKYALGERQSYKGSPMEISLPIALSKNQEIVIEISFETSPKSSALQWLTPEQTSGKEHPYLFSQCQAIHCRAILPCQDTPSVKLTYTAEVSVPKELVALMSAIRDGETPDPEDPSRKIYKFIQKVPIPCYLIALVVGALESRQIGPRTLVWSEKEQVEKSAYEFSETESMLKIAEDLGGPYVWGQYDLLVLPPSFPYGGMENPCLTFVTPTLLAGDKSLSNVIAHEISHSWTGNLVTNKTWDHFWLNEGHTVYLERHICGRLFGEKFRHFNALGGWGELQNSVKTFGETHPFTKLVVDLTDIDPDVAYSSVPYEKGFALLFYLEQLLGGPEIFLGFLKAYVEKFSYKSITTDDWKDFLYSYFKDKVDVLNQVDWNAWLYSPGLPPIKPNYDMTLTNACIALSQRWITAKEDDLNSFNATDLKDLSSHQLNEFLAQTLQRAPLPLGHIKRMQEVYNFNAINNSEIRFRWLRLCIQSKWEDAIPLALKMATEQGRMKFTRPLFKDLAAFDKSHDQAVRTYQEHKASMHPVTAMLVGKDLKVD
Kind of experiment: LTA4H Enzyme assay (peptidase, Arg-AMC cleavage). The format is biochemical. The following applies: LTA4H enzyme 1 nM, Arg-AMC substrate 50 μM, room temperature 1 h, fluorescence 380/460 nm. Summed up: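 Human LTA4H (1 nM final) incubated with compound and Arg-AMC (50 μM final) in 50 mM Tris-HCl pH 7.5, 100 mM KCl, 0.5% BSA, 1 h at room temperature. Product read as AMC fluorescence (ex 380/em 460 nm); IC50 reported.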

Experiment [1] has as its system LTB4 synthesis in human whole blood. The experiment can be described thus: human whole blood (HWB) assay, inhibition of LTB4 production. The format is cell-based. The following applies: heparinized human whole blood, calcimycin 20 μM stimulation, plasma LTB4. Summed up: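 Heparinized human whole blood preincubated with compound 15 min at 37 °C, then stimulated with 20 μM (final) calcimycin for 30 min at 37 °C. Plasma LTB4 measured by antibody-based HTRF; IC50 reported.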

The structures appear in SMILES notation.

For `c1cc(-c2ccc(Oc3ccc4c(cnn4CCN4CCOCC4)c3)cc2)[nH]n1` [Example 102, 1-(2-Morpholin-4-yl-ethyl)-5-[4-(2H-pyrazol-3-yl)-phenoxy]-1H-indazole], the IC50 is 0.91 nM on human LTA4 hydrolase and 190 nM in experiment [1].

Take `c1cc(-c2ccc(Cc3ccc4nc(CN5CCCC5)[nH]c4c3)cc2)[nH]n1` [Example 54, 6-[4-(2H-Pyrazol-3-yl)-benzyl]-2-pyrrolidin-1-ylmethyl-1H-benzoimidazole]: the IC50 on human LTA4 hydrolase was determined as 0.13 nM; in experiment [1], 94 nM.

As to `C[C@H]1CN(Cc2nc3ccc(Cc4ccc(-c5ccn[nH]5)cc4)cc3[nH]2)C[C@H](C)O1` [Example 56, 2-((2S,6S)-2,6-Dimethyl-morpholin-4-ylmethyl)-6-[4-(2H-pyrazol-3-yl)-benzyl]-1H-benzoimidazole], the figures for the concentration for half-maximal inhibition (IC50) (against human LTA4 hydrolase; in experiment [1]) were 0.18 nM and 110 nM, respectively.

On to `c1cc(-c2ccc(Oc3ccc4c(cnn4CCCN4CCCC4)c3)cc2)[nH]n1` [Example 79, 5-[4-(2H-Pyrazol-3-yl)-phenoxy]-1-(3-pyrrolidin-1-yl-propyl)-1H-indazole], for which the IC50 was 0.3 nM on human LTA4 hydrolase and 98 nM in experiment [1].

With `CC[C@H](C)N(C)Cc1nc2cc(Oc3ccc(-c4ccn[nH]4)cc3)ccc2[nH]1` [Example 74, ((S)-sec-butyl)-methyl-{5-[4-(2H-pyrazol-3-yl)-phenoxy]-1H-benzoimidazol-2-ylmethyl}-amine], the IC50 against human LTA4 hydrolase is 0.099 nM; in experiment [1], 67 nM.

For `CCC(=O)N1CCN(Cc2ccc3cc(Oc4ccc(-c5ccn[nH]5)cc4)ccc3n2)CC1` [Example 12, 1-(4-{6-[4-(2H-pyrazol-3-yl)-phenoxy]-quinolin-2-ylmethyl}-piperazin-1-yl)-propan-1-one], the results for the IC50 (at human LTA4 hydrolase; in experiment [1]) were 0.45 nM and 190 nM, respectively.

`O=C1CC[C@@H](OCc2cn3cc(Oc4ccc(-c5ccn[nH]5)cc4)ccc3n2)CN1` [Example 260, (R)-5-{6-[4-(2H-Pyrazol-3-yl)-phenoxy]-imidazo[1,2-a]pyridin-2-ylmethoxy}-piperidin-2-one]: the IC50 on human LTA4 hydrolase came out at 5.3 nM; in experiment [1] it was 2200 nM.

As to `CN(C)CCn1cc2cc(Oc3ccc(-c4ccn[nH]4)cc3)ccc2n1` [Example 158, Dimethyl-(2-{5-[4-(2H-pyrazol-3-yl)-phenoxy]-indazol-2-yl}-ethyl)-amine], the IC50 against human LTA4 hydrolase stood at 0.28 nM; in experiment [1] it was 110 nM.

Take `O=C(CO)N1CCN(Cc2ccc3cc(Oc4ccc(-c5ccn[nH]5)cc4)ccc3n2)CC1` [Example 10, 2-hydroxy-1-(4-{6-[4-(2H-pyrazol-3-yl)-phenoxy]-quinolin-2-ylmethyl}-piperazin-1-yl)-ethanone]: the half-maximal inhibitory concentration (IC50) against human LTA4 hydrolase came to 0.53 nM; in experiment [1], 150 nM.

For `CC(=O)NC1CCN(CC2Cc3ccc(Oc4ccc(-c5ccn[nH]5)cn4)cc3O2)CC1` (centres unmarked) [Example 125, N-(1-{6-[5-(2H-Pyrazol-3-yl)-pyridin-2-yloxy]-2,3-dihydro-benzofuran-2-ylmethyl}-piperidin-4-yl)-acetamide], the IC50 stood at 0.29 nM against human LTA4 hydrolase and 100 nM in experiment [1].

Consider `CC1(O)CN(Cc2ccc3cc(Oc4ccc(-c5ccn[nH]5)cn4)ccc3n2)C1` [Example 174, 3-Methyl-1-{6-[5-(2H-pyrazol-3-yl)-pyridin-2-yloxy]-quinolin-2-ylmethyl}-azetidin-3-ol], for which the IC50 at human LTA4 hydrolase stood at 0.65 nM; in experiment [1], 140 nM.

As to `O=C(CO)N1C2CCC1CN(Cc1ccc3cc(Oc4ccc(-c5ccn[nH]5)cn4)ccc3n1)C2` [Example 44, 2-Hydroxy-1-(3-{6-[5-(2H-pyrazol-3-yl)-pyridin-2-yloxy]-quinolin-2-ylmethyl}-3,8-diaza-bicyclo[3.2.1]oct-8-yl)-ethanone], the IC50 at human LTA4 hydrolase stood at 0.71 nM; in experiment [1] it was 410 nM.

With `c1cc(-c2ccc(Oc3ccc4[nH]c(CNC[C@@H]5CCCO5)nc4c3)cc2)[nH]n1` [Example 100, {5-[4-(2H-Pyrazol-3-yl)-phenoxy]-1H-benzoimidazol-2-ylmethyl}-[(S)-1-(tetrahydro-furan-2-yl)methyl]-amine], the IC50 against human LTA4 hydrolase is 0.42 nM; in experiment [1], 170 nM.

`CN1CCC[C@H]1Cc1nc2cc(Oc3ccc(-c4ccn[nH]4)cc3)ccc2[nH]1` [Example 89, 2-((S)-1-Methyl-pyrrolidin-2-ylmethyl)-5-[4-(2H-pyrazol-3-yl)-phenoxy]-1H-benzoimidazole]: the IC50 on human LTA4 hydrolase turned out to be 0.086 nM; in experiment [1], 130 nM.

Turning to `c1cc(-c2ccc(Oc3ccc4nn(CCN5CCCC5)cc4c3)cc2)[nH]n1` [Example 217, 5-[4-(2H-Pyrazol-3-yl)-phenoxy]-2-(2-pyrrolidin-1-yl-ethyl)-2H-indazole], the IC50 worked out at 0.12 nM on human LTA4 hydrolase and 81 nM in experiment [1].

Consider `COCC(=O)NC1CCN(Cc2ccc3cc(Oc4ccc(-c5cc[nH]n5)cn4)ccc3n2)CC1` [Example 236, 2-Methoxy-N-(1-{6-[5-(1H-pyrazol-3-yl)-pyridin-2-yloxy]-quinolin-2-ylmethyl}-piperidin-4-yl)-acetamide], for which the figures for the 50% inhibitory concentration (IC50) (against human LTA4 hydrolase; in experiment [1]) were 0.96 nM and 200 nM, respectively.

In the case of `c1cc(-c2ccc(Oc3ccc4nn(CCCN5CCCC5)cc4c3)cc2)[nH]n1` [Example 105, 5-[4-(2H-Pyrazol-3-yl)-phenoxy]-2-(3-pyrrolidin-1-yl-propyl)-2H-indazole], the values for the IC50 (on human LTA4 hydrolase; in experiment [1]) were 0.53 nM and 200 nM, respectively.

On to `CC[C@@H](C)N(C)Cc1nc2cc(Oc3ccc(-c4ccn[nH]4)cc3)ccc2[nH]1` [Example 80, ((R)-sec-Butyl)-methyl-{5-[4-(2H-pyrazol-3-yl)-phenoxy]-1H-benzoimidazol-2-ylmethyl}-amine], for which the figures for the IC50 (on human LTA4 hydrolase; in experiment [1]) were 0.09 nM and 98 nM, respectively.

With `CC(=O)N1CCN(CCn2ncc3cc(Oc4ccc(-c5ccn[nH]5)cc4)ccc32)CC1` [Example 90, 1-[4-(2-{5-[4-(2H-Pyrazol-3-yl)-phenoxy]-indazol-1-yl}-ethyl)-piperazin-1-yl]-ethanone], the IC50 at human LTA4 hydrolase was determined as 0.45 nM; in experiment [1] it was 130 nM.

As for `O=C1CC[C@@H](Cn2ncc3cc(Oc4ccc(-c5ccn[nH]5)cc4)ccc32)N1` [Example 253, (S)-5-{5-[4-(2H-Pyrazol-3-yl)-phenoxy]-indazol-1-ylmethyl}-pyrrolidin-2-one], the results for the IC50 (against human LTA4 hydrolase; in experiment [1]) were 1.4 nM and 300 nM, respectively.

`CC(=O)N1CCN(c2ccc3cc(Oc4ccc(-c5ccn[nH]5)cn4)ccc3n2)CC1` [Example 115, 1-(4-{6-[5-(2H-Pyrazol-3-yl)-pyridin-2-yloxy]-quinolin-2-yl}-piperazin-1-yl)-ethanone]: the 50% inhibitory concentration (IC50) is 1.7 nM on human LTA4 hydrolase and 550 nM in experiment [1].

With `CC(=O)NC1CCN(CC2Cc3ccc(Oc4ccc(-c5ccn[nH]5)cc4)cc3O2)CC1` (centres unmarked) [Example 219, N-(1-[6-[4-(2H-Pyrazol-3-yl)-phenoxy]-2,3-dihydro-benzofuran-2-ylmethyl]-piperidin-4-yl)-acetamide], the IC50 was 0.22 nM against human LTA4 hydrolase and 110 nM in experiment [1].

On to `COCCN(CCOC)Cc1nc2cc(Oc3ccc(-c4ccn[nH]4)cc3)ccc2[nH]1` [Example 186, Bis-(2-methoxy-ethyl)-{5-[4-(2H-pyrazol-3-yl)-phenoxy]-1H-benzoimidazol-2-ylmethyl}-amine], for which the concentration for half-maximal inhibition (IC50) at human LTA4 hydrolase was 0.23 nM; in experiment [1] it was 150 nM.

In the case of `c1cc(-c2ccc(Oc3ccc4nn(CCNCC5CCOCC5)cc4c3)cc2)[nH]n1` [Example 206, (2-{5-[4-(2H-Pyrazol-3-yl)-phenoxy]-indazol-2-yl}-ethyl)-(tetrahydro-pyran-4-ylmethyl)-amine], the results for the IC50 (on human LTA4 hydrolase; in experiment [1]) were 0.42 nM and 210 nM, respectively.

Turning to `CN(Cc1nc2cc(Oc3ccc(-c4ccn[nH]4)cc3)ccc2[nH]1)C1CC1` [Example 179, Cyclopropyl-methyl-{5-[4-(2H-pyrazol-3-yl)-phenoxy]-1H-benzoimidazol-2-ylmethyl}-amine], the IC50 against human LTA4 hydrolase came to 0.2 nM; in experiment [1], 150 nM.

Turning to `OCC1CCCCN1Cc1nc2cc(Oc3ccc(-c4ccn[nH]4)cc3)ccc2[nH]1` (centres unmarked) [Example 195, (1-{5-[4-(2H-Pyrazol-3-yl)-phenoxy]-1H-benzoimidazol-2-ylmethyl}-piperidin-2-yl)-methanol], the IC50 against human LTA4 hydrolase was 0.14 nM; in experiment [1] it was 180 nM.

Consider `CN(Cc1nc2cc(Oc3ccc(-c4ccn[nH]4)cc3)ccc2[nH]1)CC1CCOC1` (centres unmarked) [Example 104, Methyl-{5-[4-(2H-pyrazol-3-yl)-phenoxy]-1H-benzoimidazol-2-ylmethyl}-(tetrahydro-furan-3-ylmethyl)-amine], for which the IC50 at human LTA4 hydrolase turned out to be 0.27 nM; in experiment [1] it was 190 nM.

`CCN(CC)Cc1nc2cc(Oc3ccc(-c4ccn[nH]4)cc3)ccc2[nH]1` [Example 152, Diethyl-{5-[4-(2H-pyrazol-3-yl)-phenoxy]-1H-benzoimidazol-2-ylmethyl}-amine]: the IC50 came out at 0.1 nM against human LTA4 hydrolase and 71 nM in experiment [1].

For orientation: IC50 means the concentration needed to halve the response being measured.

Source of the values: patent US9403830B2, “Inhibitors of leukotriene production” (Boehringer Ingelheim International GmbH, priority 2012, dated 2016).
